This series concerns CCRIS mutagenicity, Ames/micronucleus/aberration tests. Nature of the series: CCRIS mutagenicity studies.
[1] abbreviates: Test System: AMES SALMONELLA TYPHIMURIUM, Strain/Indicator: TA98, Metabolic Activation: NONE, Method: STANDARD PLATE.
Setting [2] is: Test System: AMES SALMONELLA TYPHIMURIUM, Strain/Indicator: TA98, Metabolic Activation: RAT, LIVER, S-9, AROCLOR 1254, Method: STANDARD PLATE.
[3] abbreviates: Test System: AMES SALMONELLA TYPHIMURIUM, Strain/Indicator: TA100, Metabolic Activation: NONE, Method: STANDARD PLATE.
[4] abbreviates: Test System: AMES SALMONELLA TYPHIMURIUM, Strain/Indicator: TA100, Metabolic Activation: RAT, LIVER, S-9, AROCLOR 1254, Method: STANDARD PLATE.
[5] abbreviates: Test System: AMES SALMONELLA TYPHIMURIUM, Strain/Indicator: TA1535, Metabolic Activation: NONE, Method: STANDARD PLATE.
Setting [6] is: Test System: AMES SALMONELLA TYPHIMURIUM, Strain/Indicator: TA1535, Metabolic Activation: RAT, LIVER, S-9, AROCLOR 1254, Method: STANDARD PLATE.
The mark [7] stands for this setting: Test System: AMES SALMONELLA TYPHIMURIUM, Strain/Indicator: TA1537, Metabolic Activation: NONE, Method: STANDARD PLATE.
Setting [8] is: Test System: AMES SALMONELLA TYPHIMURIUM, Strain/Indicator: TA1537, Metabolic Activation: RAT, LIVER, S-9, AROCLOR 1254, Method: STANDARD PLATE.

Calls of active or inactive are those of the source. How the calls were made is not given here.

Regarding `COc1cc(N=Nc2ccc(N(CCO)CCO)cc2)ccc1N=Nc1c(S(=O)(=O)O)cc2ccc(N)cc2c1O`, the mutagenic call is “inactive; negative” under setting [1]; “active; positive” under setting [2]; “inactive; negative” under setting [3]; “inactive; negative” under setting [4]; “inactive; negative” (Test System: AMES SALMONELLA TYPHIMURIUM, Strain/Indicator: TA1538, Metabolic Activation: NONE, Method: STANDARD PLATE); “active; positive” (Test System: AMES SALMONELLA TYPHIMURIUM, Strain/Indicator: TA1538, Metabolic Activation: RAT, LIVER, S-9, AROCLOR 1254, Method: STANDARD PLATE).

Take `OCc1ccc2nc3c(ccc4ccccc43)c(CO)c2c1`: under setting [4], the mutagenic call was “active; positive”.

With `CC(=O)[C@H]1CC[C@H]2[C@@H]3C=CC4=CC(=O)CC[C@@]4(C)[C@@H]3CC[C@]12C`, the mutagenic call (End Point: IN VIVO MICRONUCLEUS, Test System: HEPATOCYTES, Species: RAT, Strain/Sex: SPRAGUE-DAWLEY/FEMALE, Route: INTRAGASTRIC (GAVAGE)) was “inactive; negative”.

In the case of `O=S(O)S(=O)O`, the mutagenic call (Test System: AMES SALMONELLA TYPHIMURIUM, Strain/Indicator: TA97, Metabolic Activation: NONE, Method: PREINCUBATION) was “inactive; negative”; the mutagenic call (Test System: AMES SALMONELLA TYPHIMURIUM, Strain/Indicator: TA97, Metabolic Activation: RAT, LIVER, S-9, AROCLOR 1254, Method: PREINCUBATION) is “inactive; negative”; the mutagenic call (Test System: AMES SALMONELLA TYPHIMURIUM, Strain/Indicator: TA98, Metabolic Activation: NONE, Method: PREINCUBATION) was “inactive; negative”; the mutagenic call (Test System: AMES SALMONELLA TYPHIMURIUM, Strain/Indicator: TA98, Metabolic Activation: RAT LIVER S-9, PHENOBARBITAL AND BETA-NAPHTHOFLAVONE, Method: PREINCUBATION) was “inactive; negative”; the mutagenic call (Test System: AMES SALMONELLA TYPHIMURIUM, Strain/Indicator: TA98, Metabolic Activation: RAT, LIVER, S-9, KC 500, Method: PREINCUBATION) was “inactive; negative”; the mutagenic call (Test System: AMES SALMONELLA TYPHIMURIUM, Strain/Indicator: TA100, Metabolic Activation: NONE, Method: PREINCUBATION) is “inactive; negative”. Moreover, the mutagenic call reads like this: (Test System: AMES SALMONELLA TYPHIMURIUM, Strain/Indicator: TA100, Metabolic Activation: RAT LIVER S-9, PHENOBARBITAL AND BETA-NAPHTHOFLAVONE, Method: PREINCUBATION) “inactive; negative”; (Test System: AMES SALMONELLA TYPHIMURIUM, Strain/Indicator: TA100, Metabolic Activation: RAT, LIVER, S-9, KC 500, Method: PREINCUBATION) “inactive; negative”; (Test System: AMES SALMONELLA TYPHIMURIUM, Strain/Indicator: TA102, Metabolic Activation: NONE, Method: PREINCUBATION) “inactive; negative”; (Test System: AMES SALMONELLA TYPHIMURIUM, Strain/Indicator: TA102, Metabolic Activation: RAT, LIVER, S-9, AROCLOR 1254, Method: PREINCUBATION) “inactive; negative”; (Test System: AMES SALMONELLA TYPHIMURIUM, Strain/Indicator: TA1535, Metabolic Activation: NONE, Method: PREINCUBATION) “inactive; negative”; (Test System: AMES SALMONELLA TYPHIMURIUM, Strain/Indicator: TA1535, Metabolic Activation: RAT LIVER S-9, PHENOBARBITAL AND BETA-NAPHTHOFLAVONE, Method: PREINCUBATION) “inactive; negative”. Further, the mutagenic call reads like this: (Test System: AMES SALMONELLA TYPHIMURIUM, Strain/Indicator: TA1535, Metabolic Activation: RAT, LIVER, S-9, KC 500, Method: PREINCUBATION) “inactive; negative”; (Test System: AMES SALMONELLA TYPHIMURIUM, Strain/Indicator: TA1537, Metabolic Activation: NONE, Method: PREINCUBATION) “inactive; negative”; (Test System: AMES SALMONELLA TYPHIMURIUM, Strain/Indicator: TA1537, Metabolic Activation: RAT LIVER S-9, PHENOBARBITAL AND BETA-NAPHTHOFLAVONE, Method: PREINCUBATION) “inactive; negative”; (Test System: AMES SALMONELLA TYPHIMURIUM, Strain/Indicator: TA1537, Metabolic Activation: RAT, LIVER, S-9, KC 500, Method: PREINCUBATION) “inactive; negative”; (Test System: AMES SALMONELLA TYPHIMURIUM, Strain/Indicator: TA1538, Metabolic Activation: NONE, Method: PREINCUBATION) “inactive; negative”; (Test System: AMES SALMONELLA TYPHIMURIUM, Strain/Indicator: TA1538, Metabolic Activation: RAT LIVER S-9, PHENOBARBITAL AND BETA-NAPHTHOFLAVONE, Method: PREINCUBATION) “inactive; negative”. Besides, the mutagenic call (Test System: AMES SALMONELLA TYPHIMURIUM, Strain/Indicator: TA1538, Metabolic Activation: RAT, LIVER, S-9, KC 500, Method: PREINCUBATION) is “inactive; negative”; the mutagenic call (Test System: E. COLI, Strain/Indicator: WP2 UVRA, Metabolic Activation: NONE, Method: PREINCUBATION) was “inactive; negative”; the mutagenic call (Test System: E. COLI, Strain/Indicator: WP2UVRA, Metabolic Activation: NONE, Method: PREINCUBATION) is “inactive; negative”; the mutagenic call (Test System: E. COLI, Strain/Indicator: WP2UVRA, Metabolic Activation: RAT LIVER S-9, PHENOBARBITAL AND BETA-NAPHTHOFLAVONE, Method: PREINCUBATION) is “inactive; negative”; the mutagenic call (Test System: E. COLI, Strain/Indicator: WP2 UVRA, Metabolic Activation: RAT, LIVER, S-9, KC 500, Method: PREINCUBATION) is “inactive; negative”.

With `O=c1[nH]c(=O)n([C@H]2C[C@H](O)[C@@H](CO)O2)cc1COO`, the mutagenic call was “active; positive” under setting [3] and “active; positive” (Test System: AMES SALMONELLA TYPHIMURIUM, Strain/Indicator: TA102, Metabolic Activation: NONE, Method: STANDARD PLATE).

For the compound `O=S(=O)(NO)c1cccc2cccnc12`, the mutagenic call is “inactive; negative” under setting [1]; “inactive; negative” under setting [2]; “inactive; negative” under setting [3]; “inactive; negative” under setting [4]; “inactive; negative” under setting [5]; “inactive; negative” under setting [6]. In addition, the mutagenic call was “inactive; negative” under setting [7] and “inactive; negative” under setting [8].

In the case of `CN=C([S-])N/N=C/C(C)=N/NC([S-])=NC.[Cu+2]`, the mutagenic call under setting [1] was “inactive; negative”; the mutagenic call (Test System: AMES SALMONELLA TYPHIMURIUM, Strain/Indicator: TA98, Metabolic Activation: RAT, LIVER, S-9, AROCLOR, Method: STANDARD PLATE) was “inactive; negative”; the mutagenic call under setting [3] was “inactive; negative”; the mutagenic call (Test System: AMES SALMONELLA TYPHIMURIUM, Strain/Indicator: TA100, Metabolic Activation: RAT, LIVER, S-9, AROCLOR, Method: STANDARD PLATE) was “inactive; negative”.

As for `O=c1c(Cl)c(Cl)cnn1S(=O)(=O)c1ccccc1`, the mutagenic call runs as follows: under setting [1], “inactive; negative”; under setting [2], “inactive; negative”; under setting [3], “inactive; negative”; under setting [4], “inactive; negative”; under setting [5], “inactive; negative”; under setting [6], “inactive; negative”. Also, the mutagenic call is “inactive; negative” under setting [7] and “inactive; negative” under setting [8].

For the compound `O=C1OC(=C(Cl)Cl)C(Cl)=C1Cl`, the mutagenic call under setting [3] is “active; positive”.

The record behind these values is PubChem BioAssay AID1259407 (Chemical Carcinogenesis Research Information System (CCRIS), 2018).
